From US20260060961A1, “SUBSTITUTED HETEROCYCLES AS RAS INHIBITORS” (Jazz Pharmaceuticals Ireland Limited, priority 2022, published 2026) come the findings set out here.

Where only a bound is given, the exact number is not on record here.

The target in this experiment is Recombinant human KRAS protein containing the G12C amino acid substitution (Homo sapiens (Human), UniProt P01116, G12C). Kind of experiment: HTRF nucleotide exchange assay, KRAS G12C. Type of experiment: biochemical. Particulars: 180 minute incubation with compound at room temperature; at least two independent replicates; read-out: KRAS G12C HTRF NEA IC50. The method, then: The capacity of compounds to bind KRAS G12C and KRAS wildtype was quantified using a HTRF nucleotide exchange assay. Recombinant human KRAS protein (5 nM; aa1-188 KRAS WT or KRAS containing the G12C amino acid substitution, an N-terminal 6×His-tag and leader sequence), and 2 nM Europium-labeled anti-6×His antibody were mixed in assay buffer (10 mM HEPES pH7.3, 75 mM NaCl, 5 mM MgCl2, 0.05% BSA, 0.0025% NP-40 and 100 mM KF) with various concentrations of compound in a 384-well plate and a volume of 5 μL. After a 180 minute incubation at room temperature, 5 μl of 200 nM EDA-GTP-DY647P1 diluted in assay buffer was added to the plate. Following 30-minute incubation at room temperature, time-resolved fluorescence was measured on a PerkinElmer Envision plate reader. DMSO (0.3%) and unlabeled GDP (1 μM) or equivalent tool compound were used to generate the Max and Min assay signals, respectively. Data was analysed using a four-parameter logistic model to calculate IC50 values, with at least two independent replicates were performed for each compound.
Recombinant human KRAS protein containing the G12C amino acid substitution, sequence (P01116 other isoform, or with tags, fused parts or gaps G12C): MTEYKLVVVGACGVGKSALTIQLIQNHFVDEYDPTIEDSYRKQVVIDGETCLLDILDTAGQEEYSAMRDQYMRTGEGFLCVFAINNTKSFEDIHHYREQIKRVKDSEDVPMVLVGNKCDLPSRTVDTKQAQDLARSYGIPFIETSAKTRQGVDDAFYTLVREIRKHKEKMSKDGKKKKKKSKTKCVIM
On the technique in general: Time-resolved FRET reads energy transfer from a long-lived donor to a nearby acceptor.
For `C=CC(=O)N1CC2(CC(c3nc(-c4ccc(N5CCOCC5)cc4)c(-c4cc(O)cc5ccccc45)n3C)C2)C1` [Example 27, 1-[6-[5-(3-hydroxy-1-naphthyl)-1-methyl-4-(4-morpholinophenyl)imidazol-2-yl]-2-azaspiro[3.3]heptan-2-yl]prop-2-en-1-one], the IC50 (usually the point on the concentration scale where inhibition reaches its midpoint) is not above 1000 nM. Then `C=CC(=O)N1CC2(CC(c3nc(-c4ccc5nn(C)cc5c4)c(-c4cc(O)cc5ccccc45)n3C)C2)C1` [Example 28, 1-[6-[5-(3-hydroxy-1-naphthyl)-1-methyl-4-(2-methylindazol-5-yl)imidazol-2-yl]-2-azaspiro[3.3]heptan-2-yl]prop-2-en-1-one], with not above 1000 nM.

In the case of `C=CC(=O)N1CC2(CC(c3nc(-c4ccc(CN5CCOCC5)cc4)c(-c4cc(O)cc5ccccc45)n3C)C2)C1` [Example 30, 1-[6-[5-(3-hydroxy-1-naphthyl)-1-methyl-4-[4-(morpholinomethyl)phenyl]imidazol-2-yl]-2-azaspiro[3.3]heptan-2-yl]prop-2-en-1-one], the IC50 is not above 1000 nM. For `C=CC(=O)N1CC2(CC(c3nc(-c4ccc(CN5CCN(C)CC5)cc4)c(-c4cc(O)cc5ccccc45)n3C)C2)C1` [Example 31, 1-[6-[5-(3-hydroxy-1-naphthyl)-1-methyl-4-[4-[(4-methylpiperazin-1-yl)methyl]phenyl]imidazol-2-yl]-2-azaspiro[3.3]heptan-2-yl]prop-2-en-1-one], the IC50 was not above 1000 nM.

On to `C=CC(=O)N1CC2(CC(c3nc(-c4ccc5c(cnn5C)c4)c(-c4cc(O)cc5ccccc45)n3CC)C2)C1` [Example 32, 1-[6-[1-ethyl-5-(3-hydroxy-1-naphthyl)-4-(1-methylindazol-5-yl)imidazol-2-yl]-2-azaspiro[3.3]heptan-2-yl]prop-2-en-1-one], for which the IC50 is not above 1000 nM. In the case of `C=CC(=O)N1CC2(CC(c3nc(-c4ccc(N5CCOCC5)cc4)c(-c4cc(O)cc5ccccc45)n3CC)C2)C1` [Example 33, 1-[6-[1-ethyl-5-(3-hydroxy-1-naphthyl)-4-(4-morpholinophenyl)imidazol-2-yl]-2-azaspiro[3.3]heptan-2-yl]prop-2-en-1-one], the concentration for half-maximal inhibition (IC50) was not above 1000 nM. The value for `C=CC(=O)N1CC2(CC(c3nc(-c4ccc5c(cnn5C)c4)c(-c4cc(O)cc5cccc(Cl)c45)n3C)C2)C1` [Example 35, 1-[6-[5-(8-chloro-3-hydroxy-1-naphthyl)-1-methyl-4-(1-methylindazol-5-yl)imidazol-2-yl]-2-azaspiro[3.3]heptan-2-yl]prop-2-en-1-one] was not above 1000 nM. Regarding `C=CC(=O)N1CC2(CC(c3nc(-c4ccc5c(cnn5C)c4)c(-c4cccc5sc(N)c(C#N)c45)n3C)C2)C1` [Example 36, 2-amino-4-[3-methyl-5-(1-methylindazol-5-yl)-2-(2-prop-2-enoyl-2-azaspiro[3.3]heptan-6-yl)imidazol-4-yl]benzothiophene-3-carbonitrile], the IC50 lay in the range of 1000 to 10000 nM. The value for `C=CC(=O)N1CC2(CC(c3nc(-c4ccc(C(=O)NCCN5CCOCC5)cc4)c(-c4cc(O)cc5ccccc45)n3C)C2)C1` [Example 37, 4-[5-(3-hydroxy-1-naphthyl)-1-methyl-2-(2-prop-2-enoyl-2-azaspiro[3.3]heptan-6-yl)imidazol-4-yl]-N-(2-morpholinoethyl)benzamide] was not above 1000 nM; that for `C=CC(=O)N1CC2(CC(c3nc(-c4ccc5c(cnn5C)c4)c(-c4c(C)c(C)cc5[nH]ncc45)n3C)C2)C1` [Example 38, 1-[6-[5-(5,6-dimethyl-1H-indazol-4-yl)-1-methyl-4-(1-methylindazol-5-yl)imidazol-2-yl]-2-azaspiro[3.3]heptan-2-yl]prop-2-en-1-one] was not above 1000 nM; that for `C=CC(=O)N1CC2(CC(c3nc(-c4ccc5c(cnn5C)c4)c(-c4cc(O)ccc4C(F)(F)F)n3C)C2)C1` [Example 39, 1-[6-[5-[5-hydroxy-2-(trifluoromethyl)phenyl]-1-methyl-4-(1-methylindazol-5-yl)imidazol-2-yl]-2-azaspiro[3.3]heptan-2-yl]prop-2-en-1-one] was not above 1000 nM. Then `C=CC(=O)N1CC2(CC(c3nc(-c4ccc5c(cnn5C)c4)c(-c4cc(C#N)cc5[nH]ncc45)n3C)C2)C1` [Example 40, 4-[3-methyl-5-(1-methylindazol-5-yl)-2-(2-prop-2-enoyl-2-azaspiro[3.3]heptan-6-yl)imidazol-4-yl]-1H-indazole-6-carbonitrile], with 1000 to 10000 nM; and `C=CC(=O)N1CC2(CC(c3nc(-c4ccc5c(cnn5C)c4)c(-c4cc(Cl)cc5[nH]ncc45)n3C)C2)C1` [Example 41, 1-[6-[5-(6-chloro-1H-indazol-4-yl)-1-methyl-4-(1-methylindazol-5-yl)imidazol-2-yl]-2-azaspiro[3.3]heptan-2-yl]prop-2-en-1-one], with not above 1000 nM.
